As usually defined, the pKa is the negative logarithm of the acid dissociation constant. A lower pKa goes with a stronger acid or weaker base.

On to `Cc1ccc(NC(=O)c2ccccc2)cc1Nc1nccc(-c2cccnc2)n1`, for which the pKa is 3.9. For the molecule `C1=C(c2cccc3ccccc23)N2CC[NH+]=C2c2ccccc21`, the pKa was 10.3.

The molecule `O=C1CCCC2(CCN(c3cnc4ccccc4n3)CC2)N1Cc1ccccc1` came in with a pKa of 3.3. Next, `Cc1nc(C(=O)[O-])ccc1N(C)Cc1cccc(Cl)c1`: 4.45; `C[NH+](C)CCSc1nc2ccccc2cc1-c1ccccc1`: 8.4. With `Cc1cc(C)nc(N2CCC3(CCCN(Cc4ccccc4-c4nc(C)no4)C3=O)CC2)n1`, the pKa turned out to be 4.8. `O=C1N(Cc2ccccc2)CCCC12CCN(c1cnc3ccccc3n1)CC2` showed a pKa of 3.6. In turn, `O=c1[nH]c2cc(-c3ccc(F)cc3)ccc2cc1[O-]` had a pKa of 8.1. For `CCc1ccccc1N(CC)C(=O)C1CCN(c2ncnc3c2nc2n3CCCCC2)CC1`, the pKa came to 3.9. As for `CS(=O)(=O)c1ccc(-c2cnc(N)c(-c3ccc(C(F)(F)F)nc3)c2)cc1`, the pKa is 4.8. For `N#Cc1c(-c2ccccc2)nc(SCc2ccccc2)[nH]c1=O` the value was 4.5. For `CCc1ccc(-c2cn3c([nH+]2)SCC3)cc1` the value was 4.8; for `O=Cc1cc(Br)cc(Br)c1O`, 5.3; for `CC(C(=O)[O-])c1ccc2c(c1)Cc1ccccc1-2` (stereo unspecified), 4.3.

The molecule `COc1ccc(/C=C/C(=O)N2CCN(c3ccccn3)CC2)cc1` displayed a pKa of 5.3. In turn, `Fc1ccc2c(/C=C/c3cccnc3)c[nH]c2c1` displayed a pKa of 5.3. Consider `COC(=O)Cn1c(C[NH+]2CCC(Cc3ccccc3)CC2)nc2c1c(=O)n(C)c(=O)n2C`, for which the pKa was 6. Next, `Cc1ccc2c(c1)C(=O)C(=O)N2`: 9.8; `CC(C(=O)[O-])c1ccc2c(c1)C(=O)c1ccccc1CS2` (stereo unspecified): 4.1. Next, `Cc1ccc(C)n1-c1ccc(SCC(=O)[O-])cc1`: 3.5; `O=C([O-])c1ccc(-c2nn(C(=O)c3c(Cl)cccc3Cl)c3ccccc23)cc1`: 3.2; `CCNC(=O)OC1CCN(c2nncc3cc(OC)c(OC)cc23)CC1`: 5.4. `Cc1ccc(NC(=O)c2cccc(C(C)(C)C#N)c2)cc1Nc1ccc2ncn(C)c(=O)c2c1`: the pKa was found to be 3.6.

As for `O=C(CSc1nccn1C1CCCC1)Nc1ccc(C(F)(F)F)cc1`, the pKa is 5.1.

Turning to `Cc1cc(C(=O)C[NH+]2CCCC2)c(C)n1-c1ccc(F)cc1`, the pKa was 9.

In the case of `COc1ccc(N2CCOCC2)c2sc(NC(=O)N3CCC(C)(O)CC3)nc12`, the pKa was determined as 9.4. Regarding `O=c1cc(CSc2cccc(F)c2F)nc2cc[nH]n12`, the pKa was found to be 7.35. `CC(=O)n1cc(C2=C([O-])CC(C)(C)CC2=O)c2ccccc21` displayed a pKa of 5.2. Regarding `O=C(Nc1nnc(-c2ccc(F)cc2)o1)c1ccc(Cl)s1`, the pKa turned out to be 5.8. As for `Nc1nc(-c2ccccn2)nc(N)c1Cc1ccc(Cl)cc1Cl`, the pKa was 5.6.

In the case of `O=C([O-])COc1ccc2c(c1)Cc1ccccc1-2`, the pKa was determined as 3. Next, `O=C([O-])CSc1ncnc2cc(-c3ccc(Br)cc3)sc12`: 3.5; `COc1ccc(NS(=O)(=O)c2ccc(-n3cccn3)cc2)cc1OC`: 8.3. Next, `CCS(=O)(=O)c1ccc(CC(=O)Nc2nc(-c3ccccc3)c(C(=O)c3ccccc3)s2)cc1`: 7.9; `CN1C(=O)Cn2cc(C(=O)NCc3ccc(Cl)cc3)c(=O)c3cc(C[NH+]4CCOCC4)cc1c32`: 6.2. Next, `O=C(NC(=O)c1ccccc1)c1ccccc1`: 9.9. On to `O=C1CCN(Cc2ccccc2)C(=O)N1`, for which the pKa worked out at 11.7. For `O=C([O-])c1ccccc1Nc1cc(C(F)(F)F)cc(C(F)(F)F)c1`, the pKa is 3.9.

In the case of `O=C(Nc1nnc(-c2cccs2)o1)c1cccc(C(F)(F)F)c1`, the pKa stood at 5.7. Next, `O=S(=O)(c1ccccc1)n1cc(-c2cccc3nccn23)c2ccccc21`: 6.4; `Nc1nccc(N2CCc3ccc(Br)cc32)n1`: 6.9. In turn, `c1ccc(N2CC[NH2+]CC2)cc1` gave a pKa of 9. `CCOC(=O)N1CCC(C)(C[NH+]2CCC3(CC2)CN(S(C)(=O)=O)c2ncccc23)CC1` yielded a pKa of 8.5. `N#Cc1ccc2ccn(-c3ccnc(N)n3)c2c1` had a pKa of 4.6.

`O=C(Nc1ccccc1C(=O)[O-])c1cccc(Oc2ccccc2)c1`: the pKa stood at 3.3. As to `O=c1[nH]c2ccc(-c3ccc(F)cc3)cc2cc1[O-]`, the pKa is 8.2. Molecule `CC(=O)Nc1cccc(Nc2nc(Nc3ccccc3)n3ncc(C#N)c3n2)c1` showed a pKa of 9.7. Regarding `O=C(Nc1ccc(F)c(Cl)c1)C1CCN(c2ncccn2)CC1`, the pKa amounted to 3.8. Next, `O=C(NCc1ccc(Cl)cc1)c1cn2c(CCO)cc3cc(C[NH+]4CCOCC4)cc(c1=O)c32`: 5.9; `O=S(=O)(Nc1cc(F)ccc1F)c1ccc2[nH]c3c(c2c1)CCCC3`: 7.3; `Fc1ccccc1C1=Cc2ccccc2C2=[NH+]CCN12`: 10.2. For `O=C(Nc1cccc(Cl)c1)c1ccccc1O` the value was 7.2; for `COc1ccc(C2=C([O-])c3ccccc3C2=O)cc1`, 4.1. `O=C(Nc1ccc(Cl)cc1)NS(=O)(=O)c1ccc(Cl)cc1`: the pKa is 3.4.

`NC(=O)c1cccc(-c2cc(Nc3ccc(OC(F)(F)F)cc3)ncn2)c1` registered a pKa of 4. For `CC(C)Nc1nc(Nc2ccc(C(N)=O)cc2)c2sccc2n1` the value was 6.3. Next, `Fc1cccc(-c2c[nH]c3ncccc23)c1`: 4.1. In turn, `O=c1ccc2nc3ccc(O)cc3oc-2c1` had a pKa of 5.8.

On to `COc1ccc2c(c1)CN(C(=O)CC[NH+]1CCC(Cc3ccccc3)CC1)CCS2`, for which the pKa was determined as 8.3. Next, `Cc1nc(-c2ccc(OCC(C)C)c(C#N)c2)sc1C(=O)[O-]`: 4; `COC(=O)c1ccc2[nH]cc(CN3CCCC4(CCN(c5nc(C)cc(C)n5)CC4)C3=O)c2c1`: 4.8; `O=C(NO)C1c2ccccc2Oc2ccccc21`: 8.4.

For the molecule `O=C(Cc1ccccc1)N1CCCC12CCN(c1cnc3ccccc3n1)CC2`, the pKa was determined as 3.6. With `COc1cccc2[nH]cc(-c3ccnc(N)n3)c12`, the pKa came out at 5.52. In the case of `COC(=O)/C=C/C(=O)[O-]`, the pKa turned out to be 2.9. For `Nc1ncnc2ccc(-c3cccc(F)c3)nc12` the value was 4.7; for `CC(C)Oc1ccc(Cc2ccc(NC3=[NH+]CCN3)cc2)cc1`, 10.5. Next, `COc1ccc2nccc(-n3cc4c(n3)CCC(NC(=O)c3ccc5c(c3)NC(=O)CS5)C4)c2n1` (stereo unspecified): 3.8; `c1ccc(-c2cnc3c(-c4ccnc5ccccc45)cnn3c2)cc1`: 4.9; `COc1cc2c(cc1OC)CN(c1cc(N)c3cc(OC)c(OC)cc3[nH+]1)CC2`: 8.9. As to `O=c1[nH]c2ccccc2c(=O)n1CCCl`, the pKa amounted to 10.

On to `Cc1cc(N)nc2ccccc12`, for which the pKa worked out at 7.9. `COc1cccc(-c2cccc(CCC3(C)CC(=O)N(C)C(N)=[NH+]3)c2)c1` (stereo unspecified) gave a pKa of 9.4. For `Cn1cc(C(=O)[O-])c(=O)c2ccccc21` the value was 6.5. For `COc1ccc(Br)c(C=O)c1O` the value was 7.5; for `Cc1csc2ncnc(NCCc3ccc(Cl)cc3)c12`, 3.9; for `O=C([O-])c1ccccc1Nc1cc(F)cc(C(F)(F)F)c1`, 3.9. The molecule `O=C([O-])c1ccc(NCc2cccc(Oc3ccccc3)c2)cn1` yielded a pKa of 4.45.

With `O=C(Nc1ccccc1C(=O)[O-])c1ccc(-c2ccccc2)cc1`, the pKa was 3.2. Next, `CCN(CC)c1ncnc2c1cnn2C`: 4.2; `O=C1CCCC2(CCN(c3cnc4ccccc4n3)CC2)N1Cc1c[nH]c2ccccc12`: 3.3; `Cc1nc(C#Cc2ccnc(Cl)c2)c(C)n1-c1ccc(F)cc1`: 4.35. `CCc1ncnc(NC(CC)c2ccc(Oc3ccc(F)cc3)cc2)c1Br` (stereo unspecified) had a pKa of 4.3. For `C=CC(=O)Nc1cccc(Nc2nc(Nc3ccc(OCCOC)cc3)ncc2F)c1` the value was 4.8; for `Cc1csc2ccc3[nH]c4c(c3c12)C[NH+](C)CC4`, 8.6.

`Cc1cc(C)nc(N2CCC3(CCCN(Cc4nn(C)cc4-c4ccccc4)C3=O)CC2)n1` gave a pKa of 4.75. In turn, `O=C1N(Cc2cccc3[nH]ccc23)CCCC12CCN(c1cnc3ccccc3n1)CC2` gave a pKa of 3.75.

In turn, `N#Cc1c(-c2ccc(Cl)cc2)nc(SCC(=O)Nc2ccc(Cl)cc2)[nH]c1=O` returned a pKa of 3.7.

In turn, `CCc1ccc(/C=C2/SC(=S)[N-]C2=O)cc1` showed a pKa of 5.8. For `O=C(/C=C/c1ccc(Br)cc1)N1CC[NH+](Cc2ccccc2)CC1` the value was 6.1; for `O=C(Nc1nccs1)C(CC1CCCC1)c1ccc(Cl)cc1` (stereo unspecified), 10.5. In the case of `CNC(=O)c1nc(-c2ccc(Cl)c(S(=O)(=O)Nc3cccc(F)c3C)c2)cnc1N`, the pKa stood at 7.6. Next, `Cc1[nH]c2ccccc2c1CC[NH2+]Cc1ccc(CCC(=O)N=O)cc1`: 8.6.

On to `COc1ccc2c(c1)C[NH+](C)CCS2`, for which the pKa was 7.5. For `CNC(=O)c1ccc(Oc2ccc3c(c2)CC[NH+](C2CCC2)CC3)nc1` the value was 8.6; for `N#Cc1cccc(Nc2ccccc2C(=O)[O-])c1`, 3.9.

The molecule `COc1ccc(-c2cnc3c(-c4cccc5ncccc45)cnn3c2)cc1` showed a pKa of 4.4. In the case of `Cc1ccc2nc(N)ccc2c1`, the pKa was 7.6.

Take `O=C(Nc1cccc(Cl)c1)c1ccc(Cl)cc1O`: the pKa turned out to be 6.3. With `C1=C(c2ccccc2)N2CC[NH+]=C2c2ccccc21`, the pKa was determined as 10.3. Molecule `Cc1ccc(C)c(CN2C(=O)CCCC23CCN(c2cnc4ccccc4n2)CC3)c1` registered a pKa of 3.4. As to `Cc1cc(C)c2cc(C(=O)NC3CC[NH+](C)CC3)[nH]c2c1`, the pKa is 8.5. Regarding `O=C(NO)C1c2ccccc2-c2ccccc21`, the pKa was 8.7. Next, `Nc1cccc2c1C(=O)N(C1CCC(=O)NC1=O)C2=O` (stereo unspecified): 10.8. On to `Cc1cc(C)nc(N2CCC3(CCCC(=O)N3Cc3cccc4[nH]ccc34)CC2)n1`, for which the pKa was 4.4. For `c1ccc(Nc2nc(NC3CCCCC3)nc3ccccc23)cc1` the value was 8.

Values taken from the pKa sets of Baltruschat and Czodrowski (2020).
